Our source for the TGI values is PubChem BioAssay (NCI).

What all share (test): NCI anticancer screen, dose series, 48 h
For test [1], the system named is OVCAR-3 ovarian.
Test [2] relates to SK-MEL-2 melanoma.
Test [3] deals with PC-3 prostate.
Test [4] concerns COLO 205 colon.
For test [5], the system named is HT29 colon.
In test [6] the test system is HCT-116 colon.
Test [7] deals with SF-268 CNS.
The test system of test [8] is A549 NSCLC.
The test system of test [9] is UO-31 renal.
Test [10] deals with MCF7 breast.
Test [11] has as its system BT-549 breast.
For test [12], the system named is SNB-19 CNS.
For test [13], the system named is OVCAR-8 ovarian.
The subject of test [14] is SNB-75 CNS.

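Results reflect a 48-hour exposure of cells in 96-well plates to compound at five concentrations. The concentration for full growth arrest is given as TGI.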 Where only a bound is given, the exact number is not on record here.

`O=C1/C(=C/c2ccc(Cl)cc2)CSC/C1=C\c1ccc(Cl)cc1`: the TGI stood at 8.11 µM in test [1]; 37.8 µM in test [2]; 16 µM in test [3]; 7.26 µM in test [4]; 4.81 µM in test [5]; 3.69 µM in [6]. Moreover, the TGI in test [7] came out at 22 µM; in test [8], 10.1 µM; in [9] it was 3.93 µM; in test [10] it was 13.1 µM; in [11] it was 4.99 µM; in test [12], 17 µM. This compound also registered a TGI in test [13] of 13.8 µM.
With `CN(CCCn1ccnc1[N+](=O)[O-])CCCn1ccnc1[N+](=O)[O-]`, the TGI in test [1], in test [2], in [14], in test [3], in test [4] and in test [5] was greater than 100 µM each time. Moreover, the TGI in [6], in test [7], in test [8], in test [9], in [10] and in test [11] was greater than 100 µM each time. In test [13], this compound returned a TGI greater than 100 µM.
Consider `CCCC(=O)NC(Nc1ccc(S(=O)(=O)Nc2ccc(OC)nn2)cc1)(C(F)(F)F)C(F)(F)F`, for which the TGI in test [1], in test [2], in test [14], in [3], in test [4] and in [5] was greater than 100 µM in each case. Also, the TGI in [6], in [7], in test [8], in test [9], in test [11] and in [12] was greater than 100 µM each time. Moreover, the TGI in test [13] was greater than 100 µM.
On to `COc1ccc(C(=O)/C=C/c2ccc(OCC(=N)N)cc2)cc1`, for which the TGI amounted to 27.5 µM in test [1]; 20.3 µM in [14]; 27.9 µM in [3]; 28.6 µM in [4]; 28.8 µM in test [5]; 16.7 µM in [6]. Moreover, the TGI in [7] was 35.6 µM; in [8], 33.1 µM; in test [9] it was 34.1 µM; in test [10] it was 26.8 µM; in test [11], 31.7 µM; in test [12] it was 29.2 µM. This compound also showed a TGI in test [13] of 37.3 µM.
Turning to `CCCCOC(=O)c1cc(C(=CCC[C@H]2CC[C@@]3(C)[C@@H](CC[C@@H]4[C@@H]3CC[C@]3(C)[C@@H](C(C)CCCC(C)C)CC[C@@H]43)C2)c2cc(Cl)c(O)c(C(=O)OCCCC)c2)cc(Cl)c1O` (stereo not given in full), the TGI in test [1], in test [2], in test [14], in test [3], in test [4] and in [5] was greater than 50 µM in each case. Besides, the TGI in test [6], in test [7], in test [11], in [12] and in test [13] was greater than 50 µM each time.
Regarding `NC(Cc1ccc(B(O)O)cc1)C(=O)NC(CO)CO` (stereo not given), the TGI in test [1], in test [2], in test [14], in test [3], in [4] and in test [5] was greater than 100 µM each time. Further, the TGI in test [6], in test [7], in [8], in [9], in test [11] and in [12] was greater than 100 µM throughout. Moreover, the TGI in test [13] was greater than 100 µM.
`CCCNC(=O)N1CC(CN2CCN(c3ccccc3)CC2)O/C1=N/C(=O)Nc1ccccc1` (stereo not given): the TGI in [2] is greater than 100 µM; in [14], greater than 100 µM; in test [3], greater than 100 µM; in [4], 74.1 µM; in test [5], greater than 100 µM; in [6] it was greater than 100 µM. The TGI in test [7], in [8], in [9], in test [10], in [11] and in test [12] was greater than 100 µM in each case.
As for `CC[C@@]1(CCC(=O)NCCc2c[nH]c3ccccc23)CCC(=O)N2CCc3c([nH]c4ccccc34)[C@H]21`, the TGI is greater than 100 µM in test [1]; 86.4 µM in test [2]; greater than 100 µM in [3]; greater than 100 µM in test [4]; greater than 100 µM in test [6]; 30 µM in test [7]. Besides, the TGI in test [8] is greater than 100 µM; in [9], greater than 100 µM; in test [10] it was greater than 100 µM; in test [11], 19.2 µM; in test [12] it was greater than 100 µM.
`CCO/C(Cc1ccc(Cl)cc1)=N/NC(N)=S`: the TGI in [1], in test [2], in [14], in [3], in test [4] and in [5] was greater than 100 µM in each case. For the same compound, the TGI in test [6], in test [8], in test [9], in test [10], in test [11] and in test [12] was greater than 100 µM each time. For the same compound, in test [13], the TGI was greater than 100 µM.
On to `COc1cc(C2c3c(ccc4ccccc34)C(=O)C3CCC(=O)N32)cc(OC)c1O` (stereo not given), for which the TGI in [1], in [2], in test [14], in test [3], in test [4] and in test [5] was greater than 25 µM in each case. Besides, the TGI in [6], in [8], in [9], in test [10], in [11] and in test [12] was greater than 25 µM throughout. For the same compound, the TGI in test [13] is greater than 25 µM.
